From the NIST ThermoML archive (doi:10.1021/je700193w)
Numbers after ± are expanded uncertainties.

What was measured:
[1] = 101.33 kPa, Liquid
[2] = xn = mol fraction of the nth substance listed; details: 101 kPa, Liquid
[3] = excess molar enthalpy (molar enthalpy of mixing); xn = mol fraction of the nth substance listed; details: 101 kPa, Liquid

Compound `CC(C)CO` [2-methyl-1-propanol] has a mass density ([1]; 283.15 K) of 809.36 ± 0.72 kg/m3, a speed of sound ([1]; 283.15 K) of 1238.7 ± 5 m/s and a mass density ([1]; 298.15 K) of 798.03 ± 0.74 kg/m3. It also gave a speed of sound ([1]; 298.15 K) of 1188 ± 4.9 m/s, a mass density ([1]; 303.15 K) of 794.17 ± 0.75 kg/m3 and a speed of sound ([1]; 303.15 K) of 1174.3 ± 4.8 m/s. It also gave a mass density ([1]; 313.15 K) of 786.1 ± 0.76 kg/m3, a speed of sound ([1]; 313.15 K) of 1138 ± 4.7 m/s and a mass density ([1]; 323.15 K) of 777.85 ± 0.77 kg/m3. The speed of sound ([1]; 323.15 K) was 1108.2 ± 4.6 m/s.
`CC(C)(C)O` [2-methylpropan-2-ol] gave a mass density ([1]; 303.15 K) of 775.75 ± 0.78 kg/m3, a speed of sound ([1]; 303.15 K) of 1101.9 ± 4.6 m/s and a mass density ([1]; 313.15 K) of 765.05 ± 0.8 kg/m3. The speed of sound ([1]; 313.15 K) was 1056.4 ± 4.5 m/s, the mass density ([1]; 323.15 K) was 754.12 ± 0.81 kg/m3 and the speed of sound ([1]; 323.15 K) was 1015.9 ± 4.4 m/s.
`C=C1CCC2CC1C2(C)C` (stereo not drawn) [β-pinene] showed a mass density ([1]; 283.15 K) of 879.07 ± 0.61 kg/m3, a speed of sound ([1]; 283.15 K) of 1354.7 ± 5.4 m/s and a mass density ([1]; 298.15 K) of 867.11 ± 0.63 kg/m3. It also gave a speed of sound ([1]; 298.15 K) of 1295.1 ± 5.2 m/s, a mass density ([1]; 303.15 K) of 863.17 ± 0.63 kg/m3 and a speed of sound ([1]; 303.15 K) of 1278.6 ± 5.1 m/s. For the same compound, the mass density ([1]; 313.15 K) was 854.87 ± 0.65 kg/m3, the speed of sound ([1]; 313.15 K) was 1236.3 ± 5 m/s and the mass density ([1]; 323.15 K) was 846.75 ± 0.66 kg/m3. It also gave a speed of sound ([1]; 323.15 K) of 1200.7 ± 4.9 m/s.
With `C=C1CCC2CC1C2(C)C` (stereo not drawn) [β-pinene] + CC(C)(C)O the mass density ([2]; 303.15 K, x1 = 0.0534) was 782.04 ± 0.76 kg/m3, the speed of sound ([2]; 303.15 K, x1 = 0.0534) was 1110 ± 4.7 m/s and the mass density ([2]; 303.15 K, x1 = 0.1048) was 787.79 ± 0.75 kg/m3. The speed of sound ([2]; 303.15 K, x1 = 0.1048) was 1118.6 ± 4.7 m/s, the mass density ([2]; 303.15 K, x1 = 0.2017) was 798.21 ± 0.73 kg/m3 and the speed of sound ([2]; 303.15 K, x1 = 0.2017) was 1135.6 ± 4.7 m/s. The mass density ([2]; 303.15 K, x1 = 0.2814) was 806.31 ± 0.72 kg/m3, the speed of sound ([2]; 303.15 K, x1 = 0.2814) was 1150.6 ± 4.8 m/s and the mass density ([2]; 303.15 K, x1 = 0.4041) was 817.92 ± 0.7 kg/m3. It also gave a speed of sound ([2]; 303.15 K, x1 = 0.4041) of 1173.7 ± 4.8 m/s, a mass density ([2]; 303.15 K, x1 = 0.5042) of 826.75 ± 0.69 kg/m3 and a speed of sound ([2]; 303.15 K, x1 = 0.5042) of 1192.6 ± 4.9 m/s. For the same compound, the mass density ([2]; 303.15 K, x1 = 0.6025) was 834.76 ± 0.67 kg/m3, the speed of sound ([2]; 303.15 K, x1 = 0.6025) was 1210.5 ± 5 m/s and the mass density ([2]; 303.15 K, x1 = 0.7042) was 842.46 ± 0.66 kg/m3. It also gave a speed of sound ([2]; 303.15 K, x1 = 0.7042) of 1228.3 ± 5 m/s, a mass density ([2]; 303.15 K, x1 = 0.8048) of 849.62 ± 0.65 kg/m3 and a speed of sound ([2]; 303.15 K, x1 = 0.8048) of 1244.8 ± 5.1 m/s. For the same compound, the mass density ([2]; 303.15 K, x1 = 0.9007) was 856.11 ± 0.64 kg/m3, the speed of sound ([2]; 303.15 K, x1 = 0.9007) was 1260.2 ± 5.1 m/s and the mass density ([2]; 303.15 K, x1 = 0.9495) was 859.38 ± 0.63 kg/m3. For the same compound, the speed of sound ([2]; 303.15 K, x1 = 0.9495) was 1268.7 ± 5.1 m/s, the mass density ([2]; 313.15 K, x1 = 0.0561) was 771.94 ± 0.77 kg/m3 and the speed of sound ([2]; 313.15 K, x1 = 0.0561) was 1066.4 ± 4.5 m/s. It also gave a mass density ([2]; 313.15 K, x1 = 0.108) of 777.84 ± 0.76 kg/m3, a speed of sound ([2]; 313.15 K, x1 = 0.108) of 1076 ± 4.6 m/s and a mass density ([2]; 313.15 K, x1 = 0.2041) of 788.5 ± 0.75 kg/m3. The speed of sound ([2]; 313.15 K, x1 = 0.2041) was 1094.3 ± 4.6 m/s, the mass density ([2]; 313.15 K, x1 = 0.2996) was 798.32 ± 0.73 kg/m3 and the speed of sound ([2]; 313.15 K, x1 = 0.2996) was 1112.7 ± 4.7 m/s. The mass density ([2]; 313.15 K, x1 = 0.4028) was 808.25 ± 0.72 kg/m3, the speed of sound ([2]; 313.15 K, x1 = 0.4028) was 1132.3 ± 4.7 m/s and the mass density ([2]; 313.15 K, x1 = 0.5039) was 817.37 ± 0.7 kg/m3. For the same compound, the speed of sound ([2]; 313.15 K, x1 = 0.5039) was 1151 ± 4.8 m/s, the mass density ([2]; 313.15 K, x1 = 0.5964) was 825.06 ± 0.69 kg/m3 and the speed of sound ([2]; 313.15 K, x1 = 0.5964) was 1167.1 ± 4.8 m/s. The mass density ([2]; 313.15 K, x1 = 0.6957) was 832.77 ± 0.68 kg/m3, the speed of sound ([2]; 313.15 K, x1 = 0.6957) was 1183.8 ± 4.9 m/s and the mass density ([2]; 313.15 K, x1 = 0.7979) was 840.16 ± 0.66 kg/m3. For the same compound, the speed of sound ([2]; 313.15 K, x1 = 0.7979) was 1201.1 ± 4.9 m/s, the mass density ([2]; 313.15 K, x1 = 0.893) was 846.86 ± 0.65 kg/m3 and the speed of sound ([2]; 313.15 K, x1 = 0.893) was 1216.7 ± 5 m/s. The mass density ([2]; 313.15 K, x1 = 0.9475) was 850.67 ± 0.65 kg/m3, the speed of sound ([2]; 313.15 K, x1 = 0.9475) was 1226.2 ± 5 m/s and the mass density ([2]; 323.15 K, x1 = 0.0554) was 761.34 ± 0.79 kg/m3. For the same compound, the speed of sound ([2]; 323.15 K, x1 = 0.0554) was 1027.2 ± 4.4 m/s, the mass density ([2]; 323.15 K, x1 = 0.1025) was 766.94 ± 0.78 kg/m3 and the speed of sound ([2]; 323.15 K, x1 = 0.1025) was 1036.7 ± 4.4 m/s. The speed of sound ([2]; 323.15 K, x1 = 0.2016) was 1056.6 ± 4.5 m/s, the mass density ([2]; 323.15 K, x1 = 0.2032) was 778.49 ± 0.76 kg/m3 and the mass density ([2]; 323.15 K, x1 = 0.3022) was 788.82 ± 0.75 kg/m3. For the same compound, the speed of sound ([2]; 323.15 K, x1 = 0.3022) was 1076.4 ± 4.6 m/s, the mass density ([2]; 323.15 K, x1 = 0.3988) was 798.4 ± 0.73 kg/m3 and the speed of sound ([2]; 323.15 K, x1 = 0.3988) was 1095.2 ± 4.6 m/s. For the same compound, the mass density ([2]; 323.15 K, x1 = 0.5053) was 808.25 ± 0.72 kg/m3, the speed of sound ([2]; 323.15 K, x1 = 0.5053) was 1115.2 ± 4.7 m/s and the mass density ([2]; 323.15 K, x1 = 0.5996) was 816.33 ± 0.7 kg/m3. It also gave a speed of sound ([2]; 323.15 K, x1 = 0.5996) of 1132.3 ± 4.7 m/s, a mass density ([2]; 323.15 K, x1 = 0.7001) of 824.27 ± 0.69 kg/m3 and a speed of sound ([2]; 323.15 K, x1 = 0.7001) of 1149.5 ± 4.8 m/s. The mass density ([2]; 323.15 K, x1 = 0.7941) was 831.23 ± 0.68 kg/m3, the speed of sound ([2]; 323.15 K, x1 = 0.799) was 1165.8 ± 4.8 m/s and the speed of sound ([2]; 323.15 K, x1 = 0.8861) was 1180.1 ± 4.9 m/s. The mass density ([2]; 323.15 K, x1 = 0.8905) was 838.16 ± 0.67 kg/m3, the speed of sound ([2]; 323.15 K, x1 = 0.9367) was 1188.6 ± 4.9 m/s and the mass density ([2]; 323.15 K, x1 = 0.9453) was 842.1 ± 0.66 kg/m3. The excess molar enthalpy ([3]; 303.15 K, x1 = 0.0529) was 0.0559 ± 0.00287 kcal/mol, the excess molar enthalpy ([3]; 303.15 K, x1 = 0.109) was 0.102 ± 0.00406 kcal/mol and the excess molar enthalpy ([3]; 303.15 K, x1 = 0.2159) was 0.162 ± 0.00574 kcal/mol. For the same compound, the excess molar enthalpy ([3]; 303.15 K, x1 = 0.3175) was 0.192 ± 0.00669 kcal/mol, the excess molar enthalpy ([3]; 303.15 K, x1 = 0.4299) was 0.198 ± 0.00693 kcal/mol and the excess molar enthalpy ([3]; 303.15 K, x1 = 0.5331) was 0.201 ± 0.00693 kcal/mol. It also gave an excess molar enthalpy ([3]; 303.15 K, x1 = 0.6229) of 0.194 ± 0.00669 kcal/mol, an excess molar enthalpy ([3]; 303.15 K, x1 = 0.7198) of 0.175 ± 0.00621 kcal/mol and an excess molar enthalpy ([3]; 303.15 K, x1 = 0.8249) of 0.15 ± 0.0055 kcal/mol. It also gave an excess molar enthalpy ([3]; 303.15 K, x1 = 0.9096) of 0.114 ± 0.00454 kcal/mol, an excess molar enthalpy ([3]; 303.15 K, x1 = 0.9686) of 0.0566 ± 0.00311 kcal/mol and an excess molar enthalpy ([3]; 313.15 K, x1 = 0.0529) of 0.0538 ± 0.00263 kcal/mol. For the same compound, the excess molar enthalpy ([3]; 313.15 K, x1 = 0.109) was 0.104 ± 0.0043 kcal/mol, the excess molar enthalpy ([3]; 313.15 K, x1 = 0.2159) was 0.179 ± 0.00645 kcal/mol and the excess molar enthalpy ([3]; 313.15 K, x1 = 0.3175) was 0.217 ± 0.00741 kcal/mol. The excess molar enthalpy ([3]; 313.15 K, x1 = 0.4299) was 0.229 ± 0.00789 kcal/mol, the excess molar enthalpy ([3]; 313.15 K, x1 = 0.5331) was 0.238 ± 0.00813 kcal/mol and the excess molar enthalpy ([3]; 313.15 K, x1 = 0.6229) was 0.235 ± 0.00813 kcal/mol. It also gave an excess molar enthalpy ([3]; 313.15 K, x1 = 0.7198) of 0.22 ± 0.00765 kcal/mol, an excess molar enthalpy ([3]; 313.15 K, x1 = 0.8249) of 0.184 ± 0.00645 kcal/mol and an excess molar enthalpy ([3]; 313.15 K, x1 = 0.9096) of 0.139 ± 0.00526 kcal/mol. The excess molar enthalpy ([3]; 313.15 K, x1 = 0.9686) was 0.0621 ± 0.00382 kcal/mol, the excess molar enthalpy ([3]; 323.15 K, x1 = 0.0529) was 0.102 ± 0.00406 kcal/mol and the excess molar enthalpy ([3]; 323.15 K, x1 = 0.109) was 0.141 ± 0.00526 kcal/mol. For the same compound, the excess molar enthalpy ([3]; 323.15 K, x1 = 0.2159) was 0.201 ± 0.00693 kcal/mol, the excess molar enthalpy ([3]; 323.15 K, x1 = 0.3175) was 0.236 ± 0.00813 kcal/mol and the excess molar enthalpy ([3]; 323.15 K, x1 = 0.4299) was 0.251 ± 0.0086 kcal/mol. For the same compound, the excess molar enthalpy ([3]; 323.15 K, x1 = 0.5331) was 0.263 ± 0.00884 kcal/mol, the excess molar enthalpy ([3]; 323.15 K, x1 = 0.6229) was 0.262 ± 0.00884 kcal/mol and the excess molar enthalpy ([3]; 323.15 K, x1 = 0.7198) was 0.248 ± 0.00837 kcal/mol. For the same compound, the excess molar enthalpy ([3]; 323.15 K, x1 = 0.8249) was 0.199 ± 0.00693 kcal/mol, the excess molar enthalpy ([3]; 323.15 K, x1 = 0.9096) was 0.147 ± 0.00574 kcal/mol and the excess molar enthalpy ([3]; 323.15 K, x1 = 0.9686) was 0.0528 ± 0.00406 kcal/mol.
